Test results: patent publication US10759865B2, “Treatment of diabetes mellitus” (priority 2017, dated 2020)
Where a name gives a salt, the structure may show the parent alone.

Test system: patient diagnosed with IDDM
Experiment: treatment of a IDDM patient, blood IDDM markers over time
Assay type: in vivo, human
Design: Insulin Auto Ab (<0.4) / IA2 Ab (Islet cell Ab Screen) (<0.8) / Glucose / Insulin (2-19.6) / HgbA1C / GAD-65 (<5): unit not given here
Procedure: A patient diagnosed with IDDM was treated with 8 units of exogenous long-acting insulin per day (administered in the evening) and 1 unit of short-acting insulin per 6 grams of carbohydrate food intake (administered before each meal).
Specific stimulation high-carb diet was introduced occasionally to monitor the patient's pancreatic ability to respond to the glycemic demands.
Each IVIG dose was administered in one continuous infusion session. From week 16 to week 42, the patient was also treated with alpha one antitrypsin.
Throughout the patient's treatment, the patient's blood was drawn at the time points indicated in Tables 1-2 below, and analyzed by established testing laboratories with respect to standard IDDM blood parameters (see Tables 1-2, top row of each table listing the markers assayed; the numerical values in parenthesis after some of the markers indicate normal reference levels).
The patient was dosed at 750 mg intravenously on weeks 87, 88, 89 and 90.
Tables 1 and 2 describe the same treatment but include data points with respect to different markers tested.

[1] = week 19, 8 mg BID, also alpha one antitrypsin
[2] = week 22, 8 mg BID, also alpha one antitrypsin
[3] = week 25, 8 mg BID, also alpha one antitrypsin
[4] = week 26, 16 mg BID, also alpha one antitrypsin
[5] = week 29, 16 mg BID, also alpha one antitrypsin
[6] = week 30, 16 mg BID, also alpha one antitrypsin
[7] = week 36, 16 mg BID, also alpha one antitrypsin
[8] = week 47, 16 mg BID, IVIG 2, 1, 1 mg/Kg in week 44
[9] = week 50, 16 mg BID, IVIG weeks 44, 47.5
[10] = week 53, 16 mg BID, IVIG weeks 44, 47.5, 50.5
[11] = week 57, 16 mg BID, IVIG weeks 44-54
[12] = week 61, 16 mg BID, IVIG weeks 44-54
[13] = week 66, 16 mg BID, IVIG weeks 44-54
[14] = week 70, 16 mg BID, IVIG weeks 44-54
[15] = week 75, 16 mg BID, IVIG weeks 44-54
[16] = week 79, 5 mg QAM & 10 mg QHS, IVIG weeks 44-54
[17] = week 82.5, 10 mg BID, IVIG weeks 44-54
[18] = week 87.5, 10 mg BID, IVIG 2, 1, 1 gm/Kg week 86, Rituxan 750 mg iv week 87
[19] = week 91.25, 10 mg BID, IVIG weeks 86, 89, Rituxan 750 mg iv weeks 87-90
[20] = week 92.25, 10 mg BID, IVIG weeks 86, 89, Rituxan 750 mg iv weeks 87-90
[21] = week 99.25, 10 mg BID, IVIG weeks 86, 89, Rituxan 750 mg iv weeks 87-90

Compound: C[C@@H]1CCN(C(=O)CC#N)C[C@@H]1N(C)c1ncnc2[nH]ccc12 [tofacitinib citrate, (3R,4R)-4-methyl-3-(methyl-7H-pyrrolo[2,3-d]pyrimidin-4-ylamino)-β-oxo-1-piperidinepropanenitrile, 2-hydroxy-1,2,3-propanetricarboxylate (1:1)]
- C-Peptide (0.8-3.85) (week 4, 8 mg BID): 2.66
- IA2 Ab (Islet cell Ab Screen) (<0.8) (week 4, 8 mg BID): 43.8
- Insulin (2-19.6) (week 4, 8 mg BID): 17.1
- Insulin Auto Ab (<0.4) (week 4, 8 mg BID): 7.2
- C-Peptide (0.8-3.85) (week 9, 8 mg BID): 1.5
- HgbA1C (week 9, 8 mg BID): 7.2
- Insulin (2-19.6) (week 9, 8 mg BID): 7.8
- C-Peptide (0.8-3.85) (week 10, 8 mg BID): 4.7
- IA2 Ab (Islet cell Ab Screen) (<0.8) (week 10, 8 mg BID): >50
- Insulin (2-19.6) (week 10, 8 mg BID): 34.5
- Insulin Auto Ab (<0.4) (week 10, 8 mg BID): 64
- C-Peptide (0.8-3.85) (week 13, 8 mg BID): 1.43
- Glucose (week 13, 8 mg BID): 104
- IA2 Ab (Islet cell Ab Screen) (<0.8) (week 13, 8 mg BID): 46.2
- Insulin Auto Ab (<0.4) (week 13, 8 mg BID): 6.1
- Islet Cell Ab Titers (week 13, 8 mg BID): 320
- C-Peptide (0.8-3.85) [1]: 1.79
- GAD-65 (<5) [1]: <5
- Glucose [1]: 126
- HgbA1C [1]: 6.1
- IA2 Ab (Islet cell Ab Screen) (<0.8) [1]: 37.7
- Insulin (2-19.6) [1]: 12
- Insulin Auto Ab (<0.4) [1]: 6.6
- Islet Cell Ab Titers [1]: 80
- Glucose [2]: 210
- HgbA1C [2]: 6.1
- Insulin (2-19.6) [2]: 24.8
- Insulin Auto Ab (<0.4) [2]: 4
- Islet Cell Ab Titers [2]: negative
- Insulin Auto Ab (<0.4) [3]: 5.3
- Islet Cell Ab Titers [3]: 20
- C-Peptide (0.8-3.85) [4]: 2.19
- GAD-65 (<5) [4]: <5
- Glucose [4]: 93
- IA2 Ab (Islet cell Ab Screen) (<0.8) [4]: 47.3
- Insulin (2-19.6) [4]: 12
- Insulin Auto Ab (<0.4) [4]: 5
- Islet Cell Ab Titers [4]: negative
- C-Peptide (0.8-3.85) [5]: 1.34
- Glucose [5]: 85
- HgbA1C [5]: 6.2
- IA2 Ab (Islet cell Ab Screen) (<0.8) [5]: 47.7
- Insulin (2-19.6) [5]: 5.4
- Insulin Auto Ab (<0.4) [5]: 4.6
- Islet Cell Ab Titers [5]: 20
- C-Peptide (0.8-3.85) [6]: 2.74
- GAD-65 (<5) [6]: <5
- Glucose [6]: 143
- HgbA1C [6]: 6.3
- IA2 Ab (Islet cell Ab Screen) (<0.8) [6]: 43.8
- Insulin (2-19.6) [6]: 34.3
- Insulin Auto Ab (<0.4) [6]: 4.2
- C-Peptide (0.8-3.85) [7]: 3.17
- IA2 Ab (Islet cell Ab Screen) (<0.8) [7]: 46.5
- Insulin (2-19.6) [7]: 31.1
- Insulin Auto Ab (<0.4) [7]: 2.4
- Islet Cell Ab Titers [7]: 20
- HgbA1C [8]: 6.9
- IA2 Ab (Islet cell Ab Screen) (<0.8) [8]: 17
- Insulin Auto Ab (<0.4) [8]: 2.1
- Islet Cell Ab Titers [8]: negative
- C-Peptide (0.8-3.85) [9]: 2.73
- HgbA1C [9]: 6.5
- IA2 Ab (Islet cell Ab Screen) (<0.8) [9]: 35.7
- Insulin (2-19.6) [9]: 25
- Insulin Auto Ab (<0.4) [9]: 0.9
- Islet Cell Ab Titers [9]: negative
- C-Peptide (0.8-3.85) [10]: 2.14
- GAD-65 (<5) [10]: 66
- Glucose [10]: 97
- HgbA1C [10]: 6.5
- IA2 Ab (Islet cell Ab Screen) (<0.8) [10]: 30
- Insulin (2-19.6) [10]: 14.8
- Insulin Auto Ab (<0.4) [10]: 0.8
- Islet Cell Ab Titers [10]: negative
- C-Peptide (0.8-3.85) [11]: 5.21
- GAD-65 (<5) [11]: 70
- Glucose [11]: 168
- HgbA1C [11]: 6.8
- IA2 Ab (Islet cell Ab Screen) (<0.8) [11]: 25.9
- Insulin (2-19.6) [11]: 47.3
- Insulin Auto Ab (<0.4) [11]: 1
- Islet Cell Ab Titers [11]: negative
- C-Peptide (0.8-3.85) [12]: 4.3
- GAD-65 (<5) [12]: 15
- Glucose [12]: 160
- HgbA1C [12]: 6.2
- IA2 Ab (Islet cell Ab Screen) (<0.8) [12]: 39.4
- Insulin (2-19.6) [12]: 37.2
- Insulin Auto Ab (<0.4) [12]: 0.9
- Islet Cell Ab Titers [12]: negative
- C-Peptide (0.8-3.85) [13]: 1.38
- GAD-65 (<5) [13]: 7
- HgbA1C [13]: 6.5
- IA2 Ab (Islet cell Ab Screen) (<0.8) [13]: 38.8
- Insulin (2-19.6) [13]: 7.7
- Insulin Auto Ab (<0.4) [13]: 0.9
- Islet Cell Ab Titers [13]: negative
- C-Peptide (0.8-3.85) [14]: 1.22
- GAD-65 (<5) [14]: <5
- Glucose [14]: 112
- HgbA1C [14]: 6.3
- IA2 Ab (Islet cell Ab Screen) (<0.8) [14]: 39.4
- Insulin (2-19.6) [14]: 6.4
- Insulin Auto Ab (<0.4) [14]: 1.7
- Islet Cell Ab Titers [14]: negative
- C-Peptide (0.8-3.85) [15]: 1.33
- GAD-65 (<5) [15]: <5
- Glucose [15]: 113
- HgbA1C [15]: 6.2
- IA2 Ab (Islet cell Ab Screen) (<0.8) [15]: 39.2
- Insulin (2-19.6) [15]: 6.6
- Insulin Auto Ab (<0.4) [15]: 0.7
- Islet Cell Ab Titers [15]: negative
- C-Peptide (0.8-3.85) [16]: 1.61
- GAD-65 (<5) [16]: <5
- Glucose [16]: 85
- HgbA1C [16]: 6.4
- IA2 Ab (Islet cell Ab Screen) (<0.8) [16]: 44.5
- Insulin (2-19.6) [16]: 5.6
- Insulin Auto Ab (<0.4) [16]: 0.5
- Islet Cell Ab Titers [16]: negative
- C-Peptide (0.8-3.85) [17]: 2.81
- GAD-65 (<5) [17]: <5
- Glucose [17]: 230
- HgbA1C [17]: 6.9
- IA2 Ab (Islet cell Ab Screen) (<0.8) [17]: 46
- Insulin (2-19.6) [17]: 24.1
- Insulin Auto Ab (<0.4) [17]: 0.5
- Islet Cell Ab Titers [17]: negative
- C-Peptide (0.8-3.85) [18]: 1.68
- GAD-65 (<5) [18]: 105
- Glucose [18]: 278
- HgbA1C [18]: 8.1
- IA2 Ab (Islet cell Ab Screen) (<0.8) [18]: 6.5
- Insulin (2-19.6) [18]: 6.1
- Insulin Auto Ab (<0.4) [18]: <0.4
- Islet Cell Ab Titers [18]: negative
- C-Peptide (0.8-3.85) [19]: 2.88
- GAD-65 (<5) [19]: 131
- Glucose [19]: 148
- HgbA1C [19]: 7.8
- IA2 Ab (Islet cell Ab Screen) (<0.8) [19]: 13.1
- Insulin (2-19.6) [19]: 47.8
- Insulin Auto Ab (<0.4) [19]: <0.4
- Islet Cell Ab Titers [19]: negative
- C-Peptide (0.8-3.85) [20]: 2.36
- GAD-65 (<5) [20]: 48
- Glucose [20]: 148
- HgbA1C [20]: 7.1
- IA2 Ab (Islet cell Ab Screen) (<0.8) [20]: 25.6
- Insulin (2-19.6) [20]: 33.7
- Insulin Auto Ab (<0.4) [20]: 0.5
- Islet Cell Ab Titers [20]: negative
- C-Peptide (0.8-3.85) [21]: 1.41
- GAD-65 (<5) [21]: 24
- Glucose [21]: 170
- HgbA1C [21]: 6.9
- IA2 Ab (Islet cell Ab Screen) (<0.8) [21]: 26.5
- Insulin (2-19.6) [21]: 14.3
- Insulin Auto Ab (<0.4) [21]: 0.7
- Islet Cell Ab Titers [21]: 20

Compound: C[C@@H]1CCN(C(=O)CC#N)C[C@@H]1N(C)c1ncnc2[nH]ccc12 [Tofacitinib]
- overall weight and muscle mass (about 10 months post initiation of tofacitinib treatment): gained overall weight and muscle mass
- auto-antibody blood titers (about 10 months post initiation, tofacitinib before IVIG): no further change
- combination effect of tofacitinib treatment and IVIG treatment (human, in vivo): synergistic effect
- need for short-acting insulin (starting three days post initiation, 5 mg twice-daily (free base)): did not receive any short-acting insulin
- need for exogenous insulin (starting three weeks post initiation, 5 mg twice-daily (free base)): did not receive any exogenous insulin
- pancreatic islet-cell auto-antibodies and anti-insulin auto-antibodies (upon treatment with tofacitinib (Table 1)): reduction
